Positions of bridges follow the written chain, without caps; N, C: chain ends. No end group written: not given here.
Key:
[1] = target: A isoform of the insulin receptor (Homo sapiens, UniProt P06213); assay type: binding
Description: The receptor binding affinity of analogue 81-04 and analogue 4SS 81-04 was also determined. The affinity of 4SS 81-04 for the A isoform of the insulin receptor was determined to be 120±20 percent relative to human insulin (and may in fact be the same as wild type human insulin given the error present; data not shown). […] Such impaired binding to IGF-1R is desirable from the perspective of potential carcinogenesis on long-term use.

[2] = in vivo
[3] = tested on: Sprague-Dawley rats made diabetic with streptozotocin; assay: Stability under extreme conditions (95° C. for 30 min, gentle agitation), read out as glucose lowering after IV bolus in diabetic rats; assay type: in vivo, rat
Description: Heat stressed insulin was given gentle agitation at 95° C. for 30 min. Doses for SCIs (nominally 1 IU/rat IV) were calculated in equivalent nanomoles protein/μl.
FIG. 3C is a graph of mean blood-glucose concentrations over time in Sprague-Dawley rats made diabetic with streptozotocin after IV bolus injection of fresh or heat-stressed SCIs on gentle agitation at 95° C. for 30 min (N=4; mean glycemia ca. 400 mg/dl). Symbol code: (filled triangle, ▴) fresh SCI-1; (open triangle, ? ) heated SCI-1; (filled square, ? ) fresh insulin lispro as positive control and (filled circle, ? ) Lilly diluent (i.e., buffer only) as negative control. Doses for SCIs (nominally 1 IU/rat IV) were calculated in equivalent nanomoles protein/μl.
FIG. 3D is a graph of the change in blood-glucose concentrations normalized to initial blood glucose concentration over time in Sprague-Dawley rats made diabetic with streptozotocin after IV bolus injection of fresh or heat-stressed SCIs on gentle agitation at 95° C. for 30 min (N=4; mean glycemia ca. 400 mg/dl). Symbol code: (filled triangle, ▴) fresh SCI-1; (open triangle, ? ) heated SCI-1; (filled square, ? ) fresh insulin lispro as positive control; and (filled circle, ? ) Lilly diluent (i.e., buffer only) as negative control. Doses for SCIs (nominally 1 IU/rat IV) were calculated in equivalent nanomoles protein/μl.
To evaluate the biological activity, potency, duration of signaling, and thermal stability of the analogues in an animal model, male Sprague-Dawley rats (mean body mass ˜300 grams) were rendered diabetic by treatment with streptozotocin (STZ). […] A control was provided by injection of protein-free Lilly diluent (obtained from Eli Lilly and Co.) composed of 16 mg glycerin, 1.6 mg meta-cresol, 0.65 mg phenol, and 3.8 mg sodium phosphate pH 7.4. The activity of SCI-1 was evaluated in relation to that of Humalog® (U-100 strength taken from an unexpired commercial vial). […] Blood was obtained from the clipped tip of the tail at time 0 and every 10 minutes up to 360 min. […]

Sequence of A isoform of the insulin receptor (P06213 28-746 isoform P06213-2 limits assumed): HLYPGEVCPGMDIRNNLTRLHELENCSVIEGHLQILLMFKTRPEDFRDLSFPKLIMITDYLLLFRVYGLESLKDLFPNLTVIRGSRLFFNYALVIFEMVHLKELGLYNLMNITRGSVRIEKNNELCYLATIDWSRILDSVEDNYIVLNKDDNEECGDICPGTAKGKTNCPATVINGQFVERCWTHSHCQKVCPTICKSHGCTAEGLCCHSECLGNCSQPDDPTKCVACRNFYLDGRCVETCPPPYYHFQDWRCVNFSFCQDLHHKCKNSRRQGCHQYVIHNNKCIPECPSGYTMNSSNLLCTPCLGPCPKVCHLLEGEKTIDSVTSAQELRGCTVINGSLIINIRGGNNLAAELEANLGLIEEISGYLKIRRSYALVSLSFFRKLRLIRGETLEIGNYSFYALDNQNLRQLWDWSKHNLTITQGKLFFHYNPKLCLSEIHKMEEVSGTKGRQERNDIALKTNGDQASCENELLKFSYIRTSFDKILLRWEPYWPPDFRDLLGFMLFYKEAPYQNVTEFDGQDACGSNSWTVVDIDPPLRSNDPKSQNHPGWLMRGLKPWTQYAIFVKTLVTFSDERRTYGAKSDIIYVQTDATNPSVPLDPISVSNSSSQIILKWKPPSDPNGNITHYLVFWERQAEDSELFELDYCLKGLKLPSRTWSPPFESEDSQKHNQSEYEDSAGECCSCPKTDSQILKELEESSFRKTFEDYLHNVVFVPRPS
Sequence of A isoform of the insulin receptor (P06213 763-1382 partner limits assumed): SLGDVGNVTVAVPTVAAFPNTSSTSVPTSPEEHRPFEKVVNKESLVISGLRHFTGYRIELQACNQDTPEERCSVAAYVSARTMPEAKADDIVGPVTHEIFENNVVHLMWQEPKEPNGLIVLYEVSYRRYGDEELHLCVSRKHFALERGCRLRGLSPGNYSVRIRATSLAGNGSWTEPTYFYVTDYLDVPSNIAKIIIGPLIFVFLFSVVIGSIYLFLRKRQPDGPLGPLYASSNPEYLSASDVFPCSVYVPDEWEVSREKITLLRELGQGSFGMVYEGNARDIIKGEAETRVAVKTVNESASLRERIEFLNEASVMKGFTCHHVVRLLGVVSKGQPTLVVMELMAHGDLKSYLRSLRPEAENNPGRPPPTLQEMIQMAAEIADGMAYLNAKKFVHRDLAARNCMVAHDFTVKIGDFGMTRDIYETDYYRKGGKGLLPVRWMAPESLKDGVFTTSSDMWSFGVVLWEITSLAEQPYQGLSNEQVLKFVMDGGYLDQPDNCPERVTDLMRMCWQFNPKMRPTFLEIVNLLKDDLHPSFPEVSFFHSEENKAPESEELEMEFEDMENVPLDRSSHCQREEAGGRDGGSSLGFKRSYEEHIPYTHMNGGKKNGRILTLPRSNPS

FVNCHLCGSHLVEALYLVCGERGFFYTDPTEEGPRRGIVEQCCHSCCSLEQLENYCN (disulfide 4-46, 7-43, 19-56, 42-47) [SCI-2]
affinity for the A isoform of the insulin receptor relative to human insulin [1]: 120±20%

FVNCHLCGSHLVEALYLVCGERGFFYTPRTEEGSRRSRGIVEQCCRSCCSLYQLENYCN (disulfide 4-48, 7-45, 19-58, 44-49) [SCI-1]
PK on conventional SQ injection [2]: prolonged PK

SCI-1 without 4SS: Preliminary version of SCI-1 lacking the 4th disulfide bridge, with Gln at position B4 and Ile at position A10 (FVNQHLCGSHLVEALYLVCGERGFFYTDPTEEGPRRGIVEQCCHSICSLEQLENYCN; disulfide (positions not given here); ends not checked)
decrement in activity of heated versus fresh sample at 240 min ([3]; 95° C. for 30 min, time point 240 min): ca. 25% | decrement in activity of heated versus fresh sample at 300 min ([3]; 95° C. for 30 min, time point 300 min): ~40% | activity after 30 min at 95° C. versus fresh sample ([3]; heat-stressed with gentle agitation at 95° C. for 30 min, nominally 1 IU/rat, N=4): largely (but incompletely) maintained
